Experimental data taken from US20220177538A1, “CO-AGONISTS AT GLP-1 AND GIP RECEPTORS SUITABLE FOR ORAL DELIVERY” (Novo Nordisk A/S, priority 2020, published 2022).
Starred links: 1 amine or outer side, 2 acyl side, 3 side chain; linkers in the order of their positions; H or OH if unused. Non-standard residues stand in square brackets, D forms with d. Residues, ends and D or L forms follow the SMILES beside them. Groups on a side chain read outwards from the residue. *: point of attachment. C18 diacid = O=C(O)CCCCCCCCCCCCCCCCC(=O)*; γGlu = O=C(O)[C@H](CCC(=O)[*:2])N[*:1]; εLys = N[C@@H](CCCCN[*:1])C(=O)[*:2]; AEEA = NCCOCCOCC(=O)O; Aib = CC(C)(N)C(=O)O

Assay: Pharmacokinetic study in dogs after oral dosing of tablets with SNAC
Format: in vivo, Beagle dogs
Experimental: The purpose of this example is to determine the half-life and plasma exposure in vivo of the compounds of the present invention after p.o. administration to beagle dogs, i.e. the terminal half-life and concentration of test substance that reaches circulation with time. This is done in a pharmacokinetic (PK) study, where these parameters of the compound in question are determined. By terminal half-life is generally meant the period of time it takes to halve a certain plasma concentration, measured after the initial distribution phase.
The amount of SNAC in the tablet composition was 100-300 mg, the amount of magnesium stearate in the tablet composition was 7.7 mg, and the target amount of each test substance in the tablet composition was 3-4 mg.
Male beagle dogs, 1-7 years of age and weighing 9-17 kg during the study period, were included in the study. The dogs were dosed in a fasting state. The dogs were group housed in pens (12 hours light: 12 hours dark), and fed individually and restrictedly once daily with Royal Canin Medium Adult dog food (Royal Canin Products, China Branch, or Brogaarden A/S, Denmark). The dogs were used for repeated PK studies with a suitable wash-out period between successive dosing. An appropriate acclimatization period was given prior to initiation of the first PK study. All handling, dosing, and blood sampling of the animals were performed by trained and skilled staff. Before the studies, the dogs were fasted overnight and from 0 to 4 hours after dosing. The dogs were restricted to water 1 hour before dosing until 4 hours after dosing, but otherwise had ad libitum access to water during the whole period.
The compositions were administered by a single oral dosing to the dogs in groups of 6-8 dogs. […] The mouth was then closed, and 10 mL of tap water was given by syringe or gavage to facilitate swallowing of the tablet.
One blood sample was drawn before dosing, and additional samples were drawn at predefined time points after dosing for up to 240 hours, such as up to 10 hours, to adequately cover the full plasma concentration-time absorption profile of the test substance. For each blood sample time point, approximately 0.8 mL of whole blood was collected in a 1.5 mL EDTA-coated tube, which was gently turned to mix the sample with EDTA. Blood samples were collected in EDTA buffer (8 mM) and then centrifuged at 4° C. 2000 g for 10 minutes. Plasma was pipetted into Micronic tubes on dry ice, and kept at −20° C. or lower until analysis. Blood samples were taken as appropriate, for example from a venflon in the cephalic vein in the front leg for the first 2 hours and then with syringe from the jugular vein for the rest of the time points. The first few drops were allowed to drain from the venflon to avoid heparin saline from the venflon in the sample.
All blood samples were collected into test tubes containing EDTA for stabilisation and kept on ice until centrifugation. Plasma was separated from whole blood by centrifugation and the plasma was stored at −20° C. or lower until analysis.
The plasma was analysed for test substance using LC-MS (Liquid Chromatography-Mass Spectrometry) as known to the person skilled in the art. […] RP-HPLC separation was achieved using a linear gradient of 1:1 acetonitrile/methanol in 1% aqueous formic acid using either: a Phenomenex Onyx Monolithic C18 column (50×2.0 mm) and a flow rate of 0.8 mL/min at 30° C.; or an Agilent Poroshell 120 SB-C18 column (50×2.1 mm, 2.7 μm) at a flow rate of 0.4 mL/min at 60° C. The mass spectrometer was operated in either positive ionization SIM mode or positive ionization PRM mode.
For each individual animal, a plasma concentration-time profile was analysed by a non-compartmental model in Pharsight Phoenix WinNonLin ver.

[1] = oral tablet, SNAC 100 mg, test substance 3 mg, Beagle dogs, arithmetic mean

Row | AUC/Dose [1] [kg·h/L] | Cmax/Dose [1] [kg/L] | Structure (SMILES) | AUC/Dose (dog, in vivo, po) [kg·h/L] | Cmax/Dose (dog, in vivo, po) [kg/L]
1 | – | – | CC[C@H](C)[C@H](NC(=O)[C@H](Cc1ccccc1)NC(=O)[C@H](CCC(=O)O)NC(=O)[C@H](CCCNC(=N)N)NC(=O)[C@H](C)NC(=O)[C@H](C)NC(=O)[C@H](CCC(N)=O)NC(=O)[C@H](CCCCNC(=O)COCCOCCNC(=O)COCCOCCNC(=O)CC[C@H](NC(=O)CCCCCCCCCCCCCCCCC(=O)O)C(=O)O)NC(=O)[C@H](CCC(=O)O)NC(=O)[C@H](CC(C)C)NC(=O)[C@H](Cc1ccc(O)cc1)NC(=O)[C@@H](NC(=O)[C@H](CO)NC(=O)[C@H](Cc1ccc(O)cc1)NC(=O)[C@H](CC(=O)O)NC(=O)[C@H](CO)NC(=O)[C@@H](NC(=O)[C@H](Cc1ccccc1)NC(=O)[C@@H](NC(=O)CNC(=O)[C@H](CCC(=O)O)NC(=O)C(C)(C)NC(=O)[C@@H](N)Cc1ccc(O)cc1)[C@@H](C)O)[C@@H](C)O)[C@@H](C)CC)C(=O)N[C@@H](CCC(=O)O)C(=O)N[C@@H](Cc1c[nH]c2ccccc12)C(=O)N[C@@H](CC(C)C)C(=O)N[C@@H](CC(C)C)C(=O)N[C@@H](C)C(=O)NCC(=O)NCC(=O)N1CCC[C@H]1C(=O)N[C@@H](CO)C(=O)N[C@@H](CO)C(=O)NCC(=O)N[C@@H](C)C(=O)N1CCC[C@H]1C(=O)N1CCC[C@H]1C(=O)N1CCC[C@H]1C(=O)N[C@@H](CO)C(=O)O [Compound 10] (H-Y[Aib]EGTFTSDYSIYLEK([AEEA-AEEA-γGlu-C18 diacid])QAAREFIEWLLAGGPSSGAPPPS-OH) | 8.4 | 0.20
2 | 14.8 | 0.29 | CC[C@H](C)[C@H](NC(=O)[C@H](Cc1ccccc1)NC(=O)[C@H](CCC(=O)O)NC(=O)[C@H](CCCNC(=N)N)NC(=O)[C@H](C)NC(=O)[C@H](C)NC(=O)[C@H](CCC(N)=O)NC(=O)[C@H](CCCCNC(=O)[C@@H](N)CCCCNC(=O)[C@@H](N)CCCCNC(=O)CC[C@H](NC(=O)CCCCCCCCCCCCCCCCC(=O)O)C(=O)O)NC(=O)[C@H](CCC(=O)O)NC(=O)[C@H](CC(C)C)NC(=O)[C@H](Cc1ccc(O)cc1)NC(=O)[C@@H](NC(=O)[C@H](CO)NC(=O)[C@H](Cc1ccc(O)cc1)NC(=O)[C@H](CC(=O)O)NC(=O)[C@H](CO)NC(=O)[C@@H](NC(=O)[C@H](Cc1ccccc1)NC(=O)[C@@H](NC(=O)CNC(=O)[C@H](CCC(=O)O)NC(=O)C(C)(C)NC(=O)[C@@H](N)Cc1ccc(O)cc1)[C@@H](C)O)[C@@H](C)O)[C@@H](C)CC)C(=O)N[C@@H](CCC(=O)O)C(=O)N[C@@H](Cc1c[nH]c2ccccc12)C(=O)N[C@@H](CC(C)C)C(=O)N[C@@H](CC(C)C)C(=O)N[C@@H](CCCNC(=N)N)C(=O)NCC(=O)NCC(=O)N1CCC[C@H]1C(=O)N[C@@H](CCC(=O)O)C(=O)N[C@@H](CO)C(=O)NCC(=O)N[C@@H](C)C(=O)N1CCC[C@H]1C(=O)N1CCC[C@H]1C(=O)N1CCC[C@H]1C(=O)N[C@@H](CO)C(=O)O [Compound 13] (H-Y[Aib]EGTFTSDYSIYLEK([εLys-εLys-γGlu-C18 diacid])QAAREFIEWLLRGGPESGAPPPS-OH) | – | –
